Reference: US20260206757A1, “METHODS OF CONTROLLING UNDESIRABLE PLANTS WITH PPO HERBICIDES AND COMBINATIONS IN HERBICIDE TOLERANT CROP PLANTS” (BASF AGRO B.V., priority 2022, published 2026)

What was measured:
Abutilon theophrasti = assay: Greenhouse experiment, post emergence herbicidal activity; type: in vivo; settings: ABUTH
Procedure: (§1) For the post emergence treatment, the plants were first grown to the 2 to 4 leaf stage (GS 12/14). The plants were cultivated due to their individual requirements at 10-25° C. and 20-35° C. The plants were irrigated as required.
(§2) Here, the herbicidal compositions were suspended or emulsified in water as distribution medium and sprayed using finely distributing nozzles. 1% methylated seed oil (MSO) has been added as adjuvant to each of the solo and mixture treatments.
(§3) In the greenhouse experiments, the herbicidal activity for the individual herbicidal compositions (solo and mixture applications) was assessed 20/21 days after treatment (DAT).
(§4) The evaluation for the damage on undesired weeds caused by the chemical compositions was carried out using a scale from 0 to 100%, compared to the untreated control plants. Here, 0 means no damage and 100 means complete destruction of the plants.

Chenopodium album = assay: as above; type: in vivo; settings: CHEAL
Procedure: as §1, §2, §3, §4

Convolvulus arvensis = assay: as above; type: in vivo; settings: CONAR
Procedure: as §1, §2, §3, §4

Echinochloa crus-galli [1] = assay: as above; type: in vivo; settings: ECHCG
Procedure: as §1, §2, §3, §4

Matricaria chamomilla = assay: as above; type: in vivo; settings: MATCH
Procedure: as §1, §2, §3, §4

Solanum nigrum = assay: as above; type: in vivo; settings: SOLNI, BBCH 12-14, Flumioxazin 1, Fomesafen 123 g ai/ha
Procedure: as §1, §2, §3, §4

Erigeron canadensis = assay: as above; type: in vivo; settings: ERICA, BBCH 12-14, Flumioxazin 1, Pyraflufen-ethyl 1.5 g ai/ha
Procedure: as §1, §2, §3, §4

Polygonum aviculare = assay: as above; type: in vivo; settings: POLAV
Procedure: as §1, §2, §3, §4

Sonchus arvensis = assay: as above; type: in vivo; settings: SONAR
Procedure: as §1, §2, §3, §4

Amaranthus retroflexus = assay: Field experiment, post-emergence herbicidal activity; type: in vivo; settings: AMARE, postemergence
Procedure: (§5) Trial Objective: Saflufenacil in tank mix with Pendimethalin efficacy on weeds and grasses in early post-emergence of the weeds
(§6) On field test sites, natural weed infestation was treated, pre-emergence of the weeds on bare soil or post-emergence of the weeds.
(§7) For the post emergence treatment, the weedy plants were treated between the 2-4 true leaf stage (GS12-14) and the 6 true leaf stage (GS 16). The herbicidal compositions were suspended or emulsified in water as distribution medium and sprayed with commercial flat fan nozzles using between 100 and 200 l/ha water.
as §4, with “In the following experiments, the herbicidal activity for the individual herbicidal compositions (solo and mixture applications) was assessed up to 36 days after treatment (DAT). The” for “The”, “assessments” for “evaluation”
(§8) [formula] • where X=effect in percent using herbicide (A) at an application rate a; • Y=effect in percent using herbicide (B) at an application rate b; • E=expected effect (in %) of herbicide (A)+herbicide (B) at application rates a+b.
(§9) The value E corresponds to the effect (plant damage or injury) which is to be expected if the activity of the individual compounds is additive. If the observed effect is higher than the value E calculated according to the Colby equation, a synergistic effect is present.

Echinochloa crus-galli [2] = assay: as above; type: in vivo; settings: ECHCG, postemergence
Procedure: as §5, §6, §7
as §4, with “In the following experiments, the herbicidal activity for the individual herbicidal compositions (solo and mixture applications) was assessed up to 36 days after treatment (DAT). The” for “The”, “assessments” for “evaluation”
as §8, §9

Mercuralis annua [3] = assay: as above; type: in vivo; settings: MERAN, postemergence, Saflufenacil 12.5, Pendimethalin 1365 g ai/ha
Procedure: as §5, §6, §7
as §4, with “In the following experiments, the herbicidal activity for the individual herbicidal compositions (solo and mixture applications) was assessed up to 36 days after treatment (DAT). The” for “The”, “assessments” for “evaluation”
as §8, §9

Ambrosia artemisiifolia = assay: Greenhouse experiment, post emergence herbicidal activity; type: in vivo; settings: AMBEL
Procedure: as §1, §2, §3, §4

Hibiscus trionum = assay: as above; type: in vivo; settings: HIBTR
Procedure: as §1, §2, §3, §4

Papaver rhoeas = assay: as above; type: in vivo; settings: PAPRH
Procedure: as §1, §2, §3, §4

Setaria viridis = assay: as above; type: in vivo; settings: SETVI
Procedure: as §1, §2, §3, §4

Eleusine indica = assay: Field experiment, pre-emergence herbicidal activity on bare ground; type: in vivo; settings: ELEIN, preemergence, Saflufenacil 25, Sulfentrazone 210 g ai/ha
Procedure: (§10) Trial Objective: Efficacy of Saflufenacil in tank mix with Flumioxazin applied in pre-emergence of the weeds on bare ground.
(§11) Trial Objective: Efficacy of Saflufenacil in tank mix with Sulfentrazone applied in pre-emergence of the weeds on bare ground.
as §6
(§12) For the pre-emergence treatment, the active compounds, suspended or emulsified in water, were applied by means of finely distributing nozzles on bare ground.
as §4, with “In the following experiments, the herbicidal activity for the individual herbicidal compositions (solo and mixture applications) was assessed up to 36 days after treatment (DAT). The” for “The”, “assessments” for “evaluation”
as §8, §9

Urochloa texana = assay: as above; type: in vivo; settings: PANTE, preemergence, Saflufenacil 25, Sulfentrazone 210 g ai/ha
Procedure: as §10, §11, §6, §12
as §4, with “In the following experiments, the herbicidal activity for the individual herbicidal compositions (solo and mixture applications) was assessed up to 36 days after treatment (DAT). The” for “The”, “assessments” for “evaluation”
as §8, §9

HELAN Pacino = assay: Greenhouse experiment, crop safety of sunflower; type: in vivo, Helianthus annuus; settings: scale 0 to 100%
Procedure: as §1, §2, §3, §4

HELAN w F(383)I = assay: Greenhouse experiment, crop safety of PPO inhibitor tolerant sunflower; type: in vivo, Helianthus annuus; settings: scale 0 to 100%
Procedure: as §1, §2, §3, §4

Mercuralis annua [4] = assay: Greenhouse experiment, post emergence herbicidal activity; type: in vivo; settings: MERAN
Procedure: as §1, §2, §3, §4

Portulaca oleracea = assay: as above; type: in vivo; settings: POROL, BBCH 12-14, Flumioxazin 4, Bifenox 168 g ai/ha
Procedure: as §1, §2, §3, §4

Sorghum halepense = assay: as above; type: in vivo; settings: SORHA, BBCH 12-14, Saflufenacil 4, Bifenox 168 g ai/ha
Procedure: as §1, §2, §3, §4

[5] = BBCH 12-14, Flumioxazin 2, Fomesafen 123 g ai/ha
[6] = BBCH 12-14, Flumioxazin 0.5, Pyraflufen-ethyl 1.5 g ai/ha
[7] = Saflufenacil 12.5, Pendimethalin 1064 g ai/ha
[8] = BBCH 12-14, Saflufenacil 0.5, Clethodim 30 g ai/ha
[9] = BBCH 12-14, Flumioxazin 2, Tribenuron-methyl 6 g ai/ha
[10] = BBCH 12-14, Flumioxazin 0.5, Halauxifen 1 g ai/ha
[11] = BBCH 12-14, Flumioxazin 2, Halauxifen 1 g ai/ha
[12] = BBCH 12-14, Saflufenacil 1, Imazamox 10 g ai/ha
[13] = BBCH 12-14, Flumioxazin 0.5, Imazamox 10 g ai/ha
[14] = BBCH 12-14, Saflufenacil 1, Bifenox 168 g ai/ha
[15] = BBCH 12-14, Saflufenacil 0.5, Bifenox 168 g ai/ha
[16] = BBCH 12-14, Flumioxazin 0.5, Bifenox 168 g ai/ha

Compound: CS(=O)(=O)NC(=O)c1cc(Oc2ccc(C(F)(F)F)cc2Cl)ccc1[N+](=O)[O-] [Fomesafen, 5-[2-Chloro-4-(trifluoromethyl)phenoxy]-N-(methanesulfonyl)-2-nitrobenzamide]
- % Herbicidal activity (Abutilon theophrasti; BBCH 12-14, Saflufenacil 2, Fomesafen 1 g ai/ha): 94%
- % Herbicidal activity (Chenopodium album; [5]): 80%
- % Herbicidal activity (Convolvulus arvensis; BBCH 12-14, Flumioxazin 0.5, Fomesafen 123 g ai/ha): 70%
- % Herbicidal activity (Echinochloa crus-galli [1]; [5]): 85%
- % Herbicidal activity (Echinochloa crus-galli [1]; BBCH 12-14, Saflufenacil 4, Fomesafen 123 g ai/ha): 95%
- % Herbicidal activity (Matricaria chamomilla; BBCH 12-14, Flumioxazin 1, Fomesafen 123 g ai/ha): 85%
- % Herbicidal activity (Solanum nigrum): 90%

Compound: CCOC(=O)COc1cc(-c2nn(C)c(OC(F)F)c2Cl)c(F)cc1Cl [Pyraflufen-ethyl, ethyl 2-[2-chloro-5-[4-chloro-5-(difluoromethoxy)-1-methylpyrazol-3-yl]-4-fluorophenoxy]acetate]
- % Herbicidal activity (Convolvulus arvensis; BBCH12-14, Flumioxazin 0.5, Pyraflufen-ethyl 1.5 g ai/ha): 70%
- % Herbicidal activity (Erigeron canadensis): 80%
- % Herbicidal activity (Polygonum aviculare; [6]): 90%
- % Herbicidal activity (Sonchus arvensis; [6]): 98%

Compound: CCC(CC)Nc1c([N+](=O)[O-])cc(C)c(C)c1[N+](=O)[O-] [Pendimethalin]
- % Herbicidal activity (Amaranthus retroflexus; Saflufenacil 12.5, Pendimethalin 840 g ai/ha): 37%
- % Herbicidal activity (Amaranthus retroflexus; [7]): 80%
- % Herbicidal activity (Echinochloa crus-galli [2]; [7]): 80%
- % Herbicidal activity (Echinochloa crus-galli [2]; Saflufenacil 12.5, Pendimethalin 1365 g ai/ha): 36%
- % Herbicidal activity (Echinochloa crus-galli [2]; Saflufenacil 50, Pendimethalin 1064 g ai/ha): 80%
- % Herbicidal activity (Mercuralis annua [3]): 42%

Compound: CCSC(C)CC1CC(=O)C(/C(CC)=N/OC/C=C/Cl)=C(O)C1 (centres unmarked) [Clethodim]
- % Herbicidal activity (Ambrosia artemisiifolia; BBCH 12-14, Saflufenacil 1, Clethodim 30 g ai/ha): 10%
- % Herbicidal activity (Chenopodium album; BBCH 12-14, Saflufenacil 4, Clethodim 30 g ai/ha): 0%
- % Herbicidal activity (Convolvulus arvensis; [8]): 0%
- % Herbicidal activity (Hibiscus trionum; [8]): 10%
- % Herbicidal activity (Matricaria chamomilla; [8]): 0%
- % Herbicidal activity (Polygonum aviculare; [8]): 0%
- % Herbicidal activity (Sonchus arvensis; [8]): 5%

Compound: COC(=O)c1ccccc1S(=O)(=O)NC(=O)N(C)c1nc(C)nc(OC)n1 [Tribenuron-methyl, Methyl 2-[[(4-methoxy-6-methyl-1,3,5-triazin-2-yl)-methylcarbamoyl]sulfamoyl]benzoate]
- % Herbicidal activity (Ambrosia artemisiifolia; BBCH 12-14, Saflufenacil 1, Tribenuron-methyl 6 g ai/ha): 90%
- % Herbicidal activity (Papaver rhoeas; [9]): 95%
- % Herbicidal activity (Setaria viridis; [9]): 25%

Compound: Cc1nn(-c2cc(NS(C)(=O)=O)c(Cl)cc2Cl)c(=O)n1C(F)F [Sulfentrazone, N-{2,4-Dichloro-5-[4-(difluoromethyl)-3-methyl-5-oxo-4,5-dihydro-1H-1,2,4-triazol-1-yl]phenyl}methanesulfonamide]
- % Herbicidal activity (Eleusine indica): 80%
- % Herbicidal activity (Urochloa texana): 45%

Compound: COc1c(Cl)ccc(-c2cc(N)c(Cl)c(C(=O)O)n2)c1F [Halauxifen]
- % Herbicidal activity (Convolvulus arvensis; [10]): 60%
- % Herbicidal activity (Convolvulus arvensis; BBCH 12-14, Saflufenacil 0.5, Halauxifen 1 g ai/ha): 70%
- % Herbicidal activity (Matricaria chamomilla; [11]): 5%
- % Herbicidal activity (Matricaria chamomilla; BBCH 12-14, Saflufenacil 2, Halauxifen 1 g ai/ha): 65%
- % Herbicidal activity (Papaver rhoeas; [10]): 95%
- % Herbicidal activity (Setaria viridis; [10]): 70%
- % Herbicidal activity (Sonchus arvensis; [11]): 65%
- Observed crop damage 21 days after treatment (HELAN Pacino; [10]): 5%
- Observed crop damage 21 days after treatment (HELAN w F(383)I; [10]): 15%

Compound: COCc1cnc(C2=NC(C)(C(C)C)C(=O)N2)c(C(=O)O)c1 (centres unmarked) [Imazamox, 5-(methoxymethyl)-2-(4-methyl-5-oxo-4-propan-2-yl-1H-imidazol-2-yl)pyridine-3-carboxylic acid]
- % Herbicidal activity (Abutilon theophrasti; BBCH 12-14, Flumioxazin 1, Imazamox 10 g ai/ha): 84%
- % Herbicidal activity (Ambrosia artemisiifolia; BBCH 12-14, Flumioxazin 4, Imazamox 10 g ai/ha): 85%
- % Herbicidal activity (Ambrosia artemisiifolia; [12]): 75%
- % Herbicidal activity (Hibiscus trionum; [13]): 65%
- % Herbicidal activity (Matricaria chamomilla; [12]): 35%
- % Herbicidal activity (Mercuralis annua [4]; [13]): 30%
- % Herbicidal activity (Setaria viridis; BBCH 12-14, Saflufenacil 0.5, Imazamox 10 g ai/ha): 75%

Compound: COC(=O)c1cc(Oc2ccc(Cl)cc2Cl)ccc1[N+](=O)[O-] [Bifenox, Methyl 5-(2,4-dichlorophenoxy)-2-nitrobenzoate]
- % Herbicidal activity (Abutilon theophrasti; BBCH 12-14, Flumioxazin 2, Bifenox 168 g ai/ha): 55%
- % Herbicidal activity (Abutilon theophrasti; [14]): 80%
- % Herbicidal activity (Ambrosia artemisiifolia; [14]): 60%
- % Herbicidal activity (Chenopodium album; BBCH 12-14, Flumioxazin 1, Bifenox 168 g ai/ha): 20%
- % Herbicidal activity (Convolvulus arvensis; [14]): 75%
- % Herbicidal activity (Mercuralis annua [4]; [15]): 55%
- % Herbicidal activity (Papaver rhoeas; [16]): 10%
- % Herbicidal activity (Papaver rhoeas; [15]): 5%
- % Herbicidal activity (Polygonum aviculare; BBCH 12-14, Flumioxazin 4, Bifenox 168 g ai/ha): 20%
- % Herbicidal activity (Portulaca oleracea): 10%
- % Herbicidal activity (Sonchus arvensis; [16]): 30%
- % Herbicidal activity (Sorghum halepense): 10%
- Observed crop damage 21 days after treatment (HELAN Pacino; [16]): 15%
- Observed crop damage 21 days after treatment (HELAN w F(383)I; [16]): 5%
